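96-well plates; 48 h exposure; 5 concentrations. Endpoints by linear interpolation between flanking doses. Not reached: highest tested concentration assigned. Abbreviation: GI50, concentration required for 50% inhibition of growth.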 Activity calls are given as the source filed them. Rule as the data show it: active = GI50 up to about 1.1 µM and inactive = higher.
Legend:
Assay in all cases: NCI anticancer screen, dose series, 48 h
RXF 631 = system: RXF 631
M19-MEL = system: M19-MEL
LXFL 529 = system: LXFL 529
SNB-78 = system: SNB-78
DMS-273 = system: DMS-273
KM-20L2 = system: KM-20L2
XF498 = system: XF498
DLD-1 = system: DLD-1
DMS-114 = system: DMS-114

Measured: GI50

COC(=O)C1C(C(=O)OC)C2C(=O)C3C(C(=O)OC)C(C(=O)OC)C3C(=O)C12 (centres undefined)
inactive: RXF 631 > 100 µM | M19-MEL > 100 µM | LXFL 529 > 100 µM | SNB-78 64.3 µM | DMS-273 > 100 µM | KM-20L2 > 100 µM | XF498 > 100 µM

COC(=O)CCC1=NOC(CC2CC(CCC(=O)OC)=NO2)C1 (centres undefined)
inactive: RXF 631 > 100 µM | DLD-1 > 100 µM | M19-MEL > 100 µM | LXFL 529 > 100 µM | SNB-78 > 100 µM | DMS-273 > 100 µM | KM-20L2 > 100 µM | XF498 > 100 µM | DMS-114 > 100 µM

O=C(Cc1nc(-c2ccccc2)cc(=O)n1-c1ccccc1Cl)c1ccncc1
inactive: RXF 631 > 100 µM | DLD-1 > 100 µM | M19-MEL > 100 µM | LXFL 529 > 100 µM | SNB-78 > 100 µM | DMS-273 > 100 µM | KM-20L2 > 100 µM | DMS-114 > 100 µM

Oc1c(Cl)c2nccnc2c2ccccc12
inactive: DLD-1 > 100 µM | M19-MEL > 100 µM | LXFL 529 > 100 µM | SNB-78 > 100 µM | DMS-273 > 100 µM | KM-20L2 > 100 µM | XF498 > 100 µM | DMS-114 > 100 µM

Cc1nc2c(o1)C(=O)c1ccccc1/C2=N\c1ccccc1
inactive: RXF 631 > 10 µM | DLD-1 13.7 µM | M19-MEL 1.82 µM | LXFL 529 3.23 µM | SNB-78 3.22 µM | DMS-273 2.49 µM | KM-20L2 20.5 µM | XF498 2.86 µM | DMS-114 1.48 µM

N#C[C@]12CC3(CC[C@H]1CC1(C2)OCCO1)OCCO3
inactive: RXF 631 > 100 µM | DLD-1 > 100 µM | M19-MEL > 100 µM | LXFL 529 > 100 µM | SNB-78 > 100 µM | DMS-273 > 100 µM | KM-20L2 > 100 µM | DMS-114 > 100 µM

Cc1[nH]c2ccccc2c1C(=O)CC1(O)C(=O)Nc2c(Cl)cc(Cl)cc21 (centres undefined)
inactive: RXF 631 29.4 µM | DLD-1 44.9 µM | M19-MEL 9.31 µM | LXFL 529 16.4 µM | SNB-78 40.7 µM | DMS-273 49.1 µM | XF498 18.2 µM | DMS-114 24.3 µM

Cc1cc(Cc2cc(C)c(NC(=O)C(=O)C3C(=O)NC(=S)NC3=O)c(C(C)C)c2)cc(C(C)C)c1NC(=O)C(=O)C1C(=O)NC(=S)NC1=O
inactive: RXF 631 > 100 µM | DLD-1 > 100 µM | M19-MEL > 100 µM | LXFL 529 > 100 µM | SNB-78 > 100 µM | DMS-273 > 100 µM | KM-20L2 > 100 µM | DMS-114 > 100 µM

O=C1NC(=O)c2c1n(Cc1ccccc1)c(=O)n2Cc1ccccc1
inactive: DLD-1 > 100 µM | M19-MEL > 100 µM | LXFL 529 > 100 µM | SNB-78 > 100 µM | DMS-273 > 100 µM | KM-20L2 > 100 µM | DMS-114 > 100 µM

O=C1NC(=S)NC(=O)C1=Cc1ccc[nH]1
inactive: DLD-1 6.85 µM | M19-MEL 13.4 µM | LXFL 529 10.3 µM | SNB-78 19.4 µM | DMS-273 3.79 µM | KM-20L2 5.94 µM | XF498 17.7 µM | DMS-114 10.8 µM

C[N+]1=c2c3cccc4cccc(c(=O)n2CCC1)c43
inactive: DLD-1 21.4 µM | M19-MEL 17.9 µM | LXFL 529 17.6 µM | SNB-78 29 µM | DMS-273 24.4 µM | KM-20L2 20 µM | XF498 18.6 µM | DMS-114 20.6 µM

[O-][Cl+3]([O-])([O-])O.c1ccc(/N=c2\snc(-c3ccccc3)s2)cc1
inactive: DLD-1 > 100 µM | M19-MEL > 100 µM | LXFL 529 > 100 µM | SNB-78 > 100 µM | DMS-273 > 100 µM | KM-20L2 > 100 µM | DMS-114 > 100 µM

C=C(C[N+](C)(C)C)N/N=C/c1oc(-c2ccc(OC)c(OC)c2)c(-c2ccc(OC)c(OC)c2)c1[N+](=O)[O-]
inactive: DLD-1 19.9 µM | M19-MEL 15.5 µM | LXFL 529 22.9 µM | SNB-78 36.4 µM | KM-20L2 31.7 µM | XF498 23.7 µM

COC(=O)c1c(O)ccc(O)c1C(C(C)=O)C(C)=O
inactive: DLD-1 > 100 µM | M19-MEL > 100 µM | LXFL 529 > 100 µM | SNB-78 > 100 µM | DMS-273 > 100 µM | XF498 > 100 µM | DMS-114 > 100 µM

Cc1noc2c1C(=O)CCC2
inactive: DLD-1 > 100 µM | M19-MEL > 100 µM | LXFL 529 > 100 µM | SNB-78 > 100 µM | KM-20L2 > 100 µM | XF498 > 100 µM | DMS-114 > 100 µM

CC1=C(C(=O)Nc2ccccc2C)C(c2ccccc2C)C(C(=O)Nc2ccccc2C)=C(C)N1
inactive: RXF 631 26.1 µM | DLD-1 14.7 µM | M19-MEL 21.7 µM | LXFL 529 > 10 µM | SNB-78 33 µM | KM-20L2 20.9 µM | XF498 18.7 µM | DMS-114 26.6 µM

N#CN1CC[C@@H]2CC3(CCC2C1)OCCO3 (some centres undefined)
inactive: RXF 631 > 100 µM | DLD-1 > 100 µM | M19-MEL > 100 µM | LXFL 529 > 100 µM | SNB-78 > 100 µM | DMS-273 > 100 µM | KM-20L2 > 100 µM | XF498 > 100 µM | DMS-114 > 100 µM

CCOC(=O)c1[nH]c(CN(C)Cc2[nH]c(C(=O)OCC)c(C)c2C(=O)OCc2ccccc2)c(C(=O)OCc2ccccc2)c1C
inactive: RXF 631 4.11 µM | DLD-1 33.9 µM | LXFL 529 13.1 µM | SNB-78 > 100 µM | DMS-273 10 µM | KM-20L2 3.04 µM | DMS-114 12.7 µM

C[N+]12c3ccccc3O[B-]1(c1ccccc1)Oc1ccccc12 (centres undefined)
inactive: DLD-1 18.2 µM | LXFL 529 28.4 µM | SNB-78 47 µM | DMS-273 29.2 µM | DMS-114 17.6 µM

Source: ChEMBL document CHEMBL1201862, “PubChem BioAssay data set” (2004)
